From patent publication US5120538A, “Combinations of compounds isolated from curcuma spp as anti-inflammatory agents” (PT Darya-Varia Laboratoria, priority 1990, dated 1992)

What was measured:
[1] = test system: Oedema of right-hind paw induced by injection of 1% carrageenan solution; experiment: Carrageenan-induced paw oedema inhibition in rats; type: in vivo, Male inbred albino rats, Wistar derived LMR strain; settings: rat, 0.01 g one hour before induction, controls safflower oil
Method: Male inbred albino rats of the Wistar derived LMR strain, weighing between 140 and 160 grams are used. Each treatment group consists of ten rats. The rats are fasted for one night and weighed the next morning. Oedema is induced in the right-hind paw of each rat by means of an injection of 1% carrageenan solution. Before the injection and each hour after injection, the volume of the right-hind paw is measured. Measurement of the volume is done by dipping the rats paw into a liquid up to a predetermined mark and measuring or weighing the displaced liquid. The apparatus for measuring volume is calibrated against objects with known volumes. Animals in the treatment groups are administered the drug orally once an hour for three hours before induction of oedema. Animals in the control groups are administered either safflower oil or polyethyleneglycol (PEG) one hour before induction. Piroxicam, a known anti-inflammatory agent used as a positive control, is administered one hour before induction.

[2] = test system: choleretic effect of curcumin; settings: cited from earlier work
cholesterol levels = settings: rats; cited from earlier work
bacteria = settings: in vitro; cited from earlier work
inflammation = settings: cited from earlier work

SMILES: CN1C(C(=O)Nc2ccccn2)=C(O)c2ccccc2S1(=O)=O [Piroxicam]
- % Oedema Inhibition over 6 Hr. Period After Induction, 1 hr. ([1]; 1 hr. after induction): 25.9%
- % Oedema Inhibition over 6 Hr. Period After Induction, 2 hr. ([1]; 2 hr. after induction): 49.0%
- % Oedema Inhibition over 6 Hr. Period After Induction, 3 hr. ([1]; 3 hr. after induction): 52.6%
- % Oedema Inhibition over 6 Hr. Period After Induction, 4 hr. ([1]; 4 hr. after induction): 43.4%
- % Oedema Inhibition over 6 Hr. Period After Induction, 5 hr. ([1]; 5 hr. after induction): 41.4%
- % Oedema Inhibition over 6 Hr. Period After Induction, 6 hr. ([1]; 6 hr. after induction): 36.5%

SMILES: O=C(C=Cc1ccc(O)cc1)CC(=O)C=Cc1ccc(O)cc1 [Bis-desmethoxycurcumin, dihydroxydicinnamoyl methane]
- choleretic effect of curcumin [2]: inhibit the choleretic effect of curcumin

SMILES: COc1cc(/C=C/C(=O)CC(=O)/C=C/c2ccc(O)c(OC)c2)ccc1O [Curcumin, diferuloylmethane]
- cholesterol levels (cholesterol levels): lower cholesterol levels
- antibacterial activity (bacteria): antibacterial activity
- anti-inflammatory effects (inflammation): anti-inflammatory effects
